Results published in EP4603105A1, “PHARMACEUTICAL COMPOSITION CONTAINING CYCLIC COMPOUND HAVING SELECTIVE KRAS INHIBITORY EFFECT AGAINST HRAS AND NRAS” (CHUGAI SEIYAKU KABUSHIKI KAISHA, priority 2022, dated 2024).
*1 amine or outer side, *2 acyl side, *3 side chain or, on linkers, in order; H or OH if unused. Where a SMILES comes first, the peptide text is derived from it. Bridges are numbered along the chain shown (N, C = ends). [ ]: non-standard residue; d: D form. The star is where a group is joined. hPhe(3,5-F2-4-CF3) = N[C@@H](CCc1cc(F)c(C(F)(F)F)c(F)c1)C(=O)O; hPhe(3-Cl-4-CF3) = N[C@@H](CCc1ccc(C(F)(F)F)c(Cl)c1)C(=O)O; NPrPhe(4-CF3) = CCCN[C@@H](Cc1ccc(C(F)(F)F)cc1)C(=O)O; X27 = COCCCN([C@@H](Cc1ccc(C)cc1)C(=O)[*:2])[*:1]; NEtPhe(4-Me) = CCN[C@@H](Cc1ccc(C)cc1)C(=O)O; NMeGly(cPent) = CN[C@H](C(=O)O)C1CCCC1; Pro(4S-Me) = C[C@@H]1CN[C@H](C(=O)O)C1; NMeNva(3-Et) = CCC(CC)[C@H](NC)C(=O)O; NMeD = CN[C@@H](CC(=O)O)C(=O)O; NMeL = CN[C@@H](CC(C)C)C(=O)O; αMeV = CC(C)[C@](C)(N)C(=O)O; Morpholide = C1CN(*)CCO1; NMeA = CN[C@@H](C)C(=O)O; Ac5c = NC1(C(=O)O)CCCC1; Aze = O=C(O)[C@@H]1CCN1; Ac4c = NC1(C(=O)O)CCC1; Sar = CNCC(=O)O

How the values were obtained:
HRAS wild-type protein = HRAS wild-type protein (Homo sapiens, UniProt P01112); experiment: Binding to HRAS by surface plasmon resonance (SPR), KD and KD ratio to KRAS
Outline: (§1)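 SPR, 30°C: Avi-biotin RAS·GDP captured via Biotin CAPture (~100–300 RU); running buffer HBS pH 7.4, 1 mM DTT, 10 mM MgCl2, 0.01% Tween 20, 10 µM GDP, 4% DMSO. Single-cycle kinetics, 100 µL/min, 75 s injections; 1:1 model → KD.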

[1] = test system: human lung cancer strain NCI-H441; assay type: cell-based
Outline: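 Proliferation was scored by […] measured after the reagent was added to cultures kept at 37°C in 5% carbon dioxide.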

[2] = biological target: GDP-bound NRAS wild-type protein (Homo sapiens, UniProt P01111); experiment: Binding to NRAS by surface plasmon resonance (SPR), KD and KD ratio to KRAS
Outline: as §1

[3] = ratio of the KD value with respect to HRAS wild-type protein to the KD value with respect to KRAS
[4] = ratio of the KD value with respect to GDP-bound NRAS wild-type protein to the KD value with respect to KRAS
[5] = ratio of KD for HRAS wild-type protein to KD for KRAS
[6] = ratio of KD for GDP-bound NRAS wild-type protein to KD for KRAS
[7] = ratio of KD value for HRAS wild-type protein to KD value for KRAS (SPR)
[8] = ratio of KD value for GDP-bound NRAS wild-type protein to KD value for KRAS (SPR)

Chain of HRAS wild-type protein (P01112 whole entry): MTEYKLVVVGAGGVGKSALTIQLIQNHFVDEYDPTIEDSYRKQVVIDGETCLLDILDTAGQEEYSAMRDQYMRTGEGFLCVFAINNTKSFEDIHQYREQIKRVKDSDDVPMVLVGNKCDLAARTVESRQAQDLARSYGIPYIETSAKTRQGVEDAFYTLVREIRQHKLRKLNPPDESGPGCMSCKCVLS
Chain of GDP-bound NRAS wild-type protein (P01111 whole entry): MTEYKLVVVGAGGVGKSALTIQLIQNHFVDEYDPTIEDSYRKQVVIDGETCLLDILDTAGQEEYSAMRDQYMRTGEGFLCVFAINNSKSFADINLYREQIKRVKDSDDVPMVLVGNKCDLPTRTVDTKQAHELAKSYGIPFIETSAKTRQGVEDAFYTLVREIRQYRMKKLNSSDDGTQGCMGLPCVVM

Compound	HRAS /KRAS (HRAS wild-type protein; [3])	IC50 [1]	NRAS /KRAS [2, 4]	HRAS /KRAS (HRAS wild-type protein; [5])	NRAS /KRAS [2, 6]	HRAS /KRAS (HRAS wild-type protein; [7])	NRAS /KRAS [2, 8]
CCCN1C(=O)CN(C)C(=O)CN(C)C(=O)[C@H]([C@@H](C)CC)NC(=O)[C@H](CC(C)C)N(C)C(=O)C[C@@H](C(=O)N(C)C)N(C)C(=O)[C@H](C2CCCC2)N(C)C(=O)[C@](C)(C(C)C)NC(=O)[C@@H]2CCCN2C(=O)[C@H](CCc2cc(F)c(C(F)(F)F)c(F)c2)NC(=O)CN(C)C(=O)[C@@H]1Cc1ccc(C(F)(F)F)cc1 [PP0735] ([NMeL]I[Sar][Sar][NPrPhe(4-CF3)][Sar][hPhe(3,5-F2-4-CF3)]P[αMeV][NMeGly(cPent)][NMeD]-NMe2; lactam N-11)	C (A compound having a KD ratio of 0.1 or more and less than 3 is denoted as C)	40.9 nM	B (a compound having 3 or more and less than 10 is denoted as B)	–	–	–	–
CC[C@H](C)[C@@H]1NC(=O)[C@H](CC(C)C)N(C)C(=O)C[C@@H](C(=O)N2CCOCC2)N(C)C(=O)[C@H](C2CCCC2)N(C)C(=O)C2(CCCC2)NC(=O)[C@@H]2CCCN2C(=O)[C@H](CCc2ccc(C(F)(F)F)c(Cl)c2)NC(=O)CN(C)C(=O)[C@H](Cc2ccc(C)cc2)N(CCCOC)C(=O)[C@@H]2CCN2C(=O)[C@H](C)N(C)C1=O [PP0093] ([NMeL]I[NMeA][Aze][X27][Sar][hPhe(3-Cl-4-CF3)]P[Ac5c][NMeGly(cPent)][NMeD]-Morpholide; lactam N-11)	–	2.2 nM	–	B (a compound having 3 or more and less than 10 is denoted as B)	C (A compound having a KD ratio of 0.1 or more and less than 3 is denoted as C)	–	–
CCO[C@@H]1C[C@H]2C(=O)NC3(CCC3)C(=O)N(C)[C@@H](C3CCCC3)C(=O)N(C)[C@H](C(=O)N(C)C)CC(=O)N(C)[C@@H](COC)C(=O)N[C@@H]([C@@H](C)CC)C(=O)N3CC[C@H]3C(=O)N(C)[C@H]3CCCCCN(C3=O)[C@@H](Cc3ccc(C(F)(F)F)cc3)C(=O)N(C)CC(=O)N[C@@H](CCc3cc(F)c(C(F)(F)F)c(F)c3)C(=O)N2C1 [PP0864]	–	185 nM	–	B (a compound having 3 or more and less than 10 is denoted as B)	B (a compound having 3 or more and less than 10 is denoted as B)	–	–
CCCN1C(=O)CN(C)C(=O)CN(C)C(=O)[C@H]([C@@H](C)CC)NC(=O)[C@H](CC(C)C)N(C)C(=O)C[C@@H](C(=O)N2CCOCC2)N(C)C(=O)[C@H](C2CCCC2)N(C)C(=O)C2(CCCC2)NC(=O)[C@@H]2C[C@H](C)CN2C(=O)[C@H](CCc2ccc(C(F)(F)F)c(Cl)c2)NC(=O)CN(C)C(=O)[C@@H]1Cc1ccc(C(F)(F)F)cc1 [PP0447] ([NMeL]I[Sar][Sar][NPrPhe(4-CF3)][Sar][hPhe(3-Cl-4-CF3)][Pro(4S-Me)][Ac5c][NMeGly(cPent)][NMeD]-Morpholide; lactam N-11)	C (A compound having a KD ratio of 0.1 or more and less than 3 is denoted as C)	3.9 nM	B (a compound having 3 or more and less than 10 is denoted as B)	–	–	–	–
CC[C@H](C)[C@@H]1NC(=O)[C@H](CC(C)C)N(C)C(=O)C[C@@H](C(=O)N2CCOCC2)N(C)C(=O)[C@H](C2CCCC2)N(C)C(=O)C2(CCCC2)NC(=O)[C@@H]2CCCN2C(=O)[C@H](CCc2ccc(C(F)(F)F)c(Cl)c2)NC(=O)CN(C)C(=O)[C@H](Cc2ccc(C)cc2)N(CC)C(=O)CN(C)C(=O)CN(C)C1=O [PP0022] ([NMeL]I[Sar][Sar][NEtPhe(4-Me)][Sar][hPhe(3-Cl-4-CF3)]P[Ac5c][NMeGly(cPent)][NMeD]-Morpholide; lactam N-11)	–	14.4 nM	–	C (A compound having a KD ratio of 0.1 or more and less than 3 is denoted as C)	B (a compound having 3 or more and less than 10 is denoted as B)	–	–
CCCN(C)C(=O)[C@@H]1CC(=O)N(C)[C@@H](CC2CC2)C(=O)N[C@@H]([C@@H](C)CC)C(=O)N(C)CC(=O)N(C)[C@H]2C/C=C\CCN(C2=O)[C@@H](Cc2ccc(C(F)(F)F)cc2)C(=O)N(C)CC(=O)N[C@@H](CCc2cc(F)c(C(F)(F)F)c(F)c2)C(=O)N2C[C@H](F)C[C@H]2C(=O)NC2(CC(C)(C)C2)C(=O)N(C)[C@@H](C2CCCC2)C(=O)N1C [PP1665]	–	3.1 nM	–	–	–	A (a compound having 10 or more and less than 20 is denoted as A)	AA (a compound having 20 or more is denoted as AA)
CCO[C@@H]1C[C@H]2C(=O)NC3(CCC3)C(=O)N(C)[C@@H](C3CCCC3)C(=O)N(C)[C@H](C(=O)N(C)C)CC(=O)N(C)[C@@H](Cc3cccc(Cl)c3)C(=O)N[C@@H]([C@@H](C)CC)C(=O)N(C)CC(=O)N(C)[C@H]3C/C=C\CCN(C3=O)[C@@H](Cc3ccc(C(F)(F)F)cc3)C(=O)N(C)CC(=O)N[C@@H](CCc3cc(F)c(C(F)(F)F)c(F)c3)C(=O)N2C1 [PP1127]	–	11.9 nM	–	A (a compound having 10 or more and less than 20 is denoted as A)	AA (a compound having 20 or more is denoted as AA)	–	–
CCCN1C(=O)CN(C)C(=O)CN(C)C(=O)[C@H]([C@@H](C)CC)NC(=O)[C@H](CC(C)C)N(C)C(=O)C[C@@H](C(=O)N2CCOCC2)N(C)C(=O)[C@H](C(CC)CC)N(C)C(=O)C2(CCC2)NC(=O)[C@@H]2CCCN2C(=O)[C@H](CCc2ccc(C(F)(F)F)c(Cl)c2)NC(=O)CN(C)C(=O)[C@@H]1Cc1ccc(C(F)(F)F)cc1 [PP1958] ([NMeL]I[Sar][Sar][NPrPhe(4-CF3)][Sar][hPhe(3-Cl-4-CF3)]P[Ac4c][NMeNva(3-Et)][NMeD]-Morpholide; lactam N-11)	B (a compound having 3 or more and less than 10 is denoted as B)	57.8 nM	B (a compound having 3 or more and less than 10 is denoted as B)	–	–	–	–
CCCN1C(=O)CN(C)C(=O)CN(C)C(=O)[C@H]([C@@H](C)CC)NC(=O)[C@@H]2CCCCCOc3ccc(cc3)C[C@H]1C(=O)N(C)CC(=O)N[C@@H](CCc1cc(F)c(C(F)(F)F)c(F)c1)C(=O)N1C[C@H](OCC)C[C@H]1C(=O)NC1(CCCC1)C(=O)N(C)[C@@H](C1CCCC1)C(=O)N(C)[C@H](C(=O)N(C)C)CC(=O)N2C [PP0895]	–	2.2 nM	–	C (A compound having a KD ratio of 0.1 or more and less than 3 is denoted as C)	C (A compound having a KD ratio of 0.1 or more and less than 3 is denoted as C)	–	–
CCCN1C(=O)CN(C)C(=O)[C@@H]2CCN2C(=O)[C@H]([C@@H](C)CC)NC(=O)[C@H](CC(C)C)N(C)C(=O)C[C@@H](C(=O)N(C)C)NC(=O)[C@H](C2CCCC2)N(C)C(=O)C2(CCCC2)NC(=O)[C@@H]2CCCN2C(=O)[C@H](CCc2ccc(C(F)(F)F)c(Cl)c2)NC(=O)CN(C)C(=O)[C@@H]1Cc1ccc(C(F)(F)F)cc1 [PP0373] ([NMeL]I[Aze][Sar][NPrPhe(4-CF3)][Sar][hPhe(3-Cl-4-CF3)]P[Ac5c][NMeGly(cPent)]D-NMe2; lactam N-11)	–	152 nM	–	B (a compound having 3 or more and less than 10 is denoted as B)	B (a compound having 3 or more and less than 10 is denoted as B)	–	–
CCC[C@H]1C(=O)N[C@@H]([C@@H](C)CC)C(=O)N(C)CC(=O)N(C)[C@H]2C/C=C\CCN(C2=O)[C@@H](Cc2ccc(C(F)(F)F)cc2)C(=O)N(C)CC(=O)N[C@@H](CCc2cc(F)c(C(F)(F)F)c(F)c2)C(=O)N2C[C@H](OCC)C[C@H]2C(=O)N(C)C2(CCC2)C(=O)N(C)[C@@H](C2CCCC2)C(=O)N(C)[C@H](C(=O)N2CCCC2)CC(=O)N1C [PP3120]	–	1.9 nM	–	A (a compound having 10 or more and less than 20 is denoted as A)	AA (a compound having 20 or more is denoted as AA)	–	–
CCO[C@@H]1C[C@H]2C(=O)NC3(CC(C)(C)C3)C(=O)N(C)[C@@H](C(CC)CC)C(=O)N(C)[C@H](C(=O)N3CCCC3)CC(=O)N(C)[C@@H](C)C(=O)N[C@@H]([C@@H](C)CC)C(=O)N(C)CC(=O)N(C)[C@H]3C/C=C\CCN(C3=O)[C@@H](Cc3ccc(C(F)(F)F)cc3)C(=O)N(C)CC(=O)N[C@@H](CCc3ccc(Cl)c(Cl)c3)C(=O)N2C1 [PP2178]	A (a compound having 10 or more and less than 20 is denoted as A)	35.9 nM	AA (a compound having 20 or more is denoted as AA)	–	–	–	–
C=CCCC[C@H]1C(=O)N[C@@H]([C@@H](C)CC)C(=O)N(C)CC(=O)N(C)[C@H]2CCCCN(C2=O)[C@@H](Cc2ccc(C(F)(F)F)cc2)C(=O)N(C)CC(=O)N[C@@H](CCc2cc(F)c(C(F)(F)F)c(F)c2)C(=O)N2C[C@H](OCC)C[C@H]2C(=O)N[C@](C)(CC=C)C(=O)N(C)[C@@H](C2CCCC2)C(=O)N(C)[C@H](C(=O)N2CCOCC2)CC(=O)N1C [PP0876]	–	7.1 nM	–	C (A compound having a KD ratio of 0.1 or more and less than 3 is denoted as C)	C (A compound having a KD ratio of 0.1 or more and less than 3 is denoted as C)	–	–
CCCN(C)C(=O)[C@@H]1CC(=O)N(C)[C@@H](COC)C(=O)N[C@@H]([C@@H](C)CC)C(=O)N(C)CC(=O)N(C)[C@H]2C/C=C\CCN(C2=O)[C@@H](Cc2ccc(C(F)(F)F)cc2)C(=O)N(C)CC(=O)N[C@@H](CCc2cc(F)c(C(F)(F)F)c(F)c2)C(=O)N2CCC[C@H]2C(=O)NC2(CC(C)(C)C2)C(=O)N(C)[C@@H](C2CCCC2)C(=O)N1C [PP1729]	–	20.6 nM	–	–	–	A (a compound having 10 or more and less than 20 is denoted as A)	AA (a compound having 20 or more is denoted as AA)
